Consider four compounds from patent US7208482B2, “9-aminoacyl tetracycline compounds and methods of use thereof” (Paratek Pharmaceuticals, Inc., priority 2001, dated 2007).

≈ marks a conversion by molar mass, not a printed value.

Holding throughout (test): MIC, broth microdilution growth inhibition
Common to all, as to type: cell-based
Holding throughout (conditions): Mueller-Hinton broth, 5×10^5 CFU/ml, 37° C., 18 h

In assay [1] the test system is S. pneumoniae ATCC 49619. Here is the method: (§1) Growth-inhibitory activity was determined on liquid medium by the antibiotic dilution technique using 96-well microtiter system plates containing two-fold dilutions of antibiotic-agent in 0.2 ml. of Mueller-Hinton broth. Plates were inoculated with each test organism to yield a final inoculum of 5×10^5 CFU/ml and were incubated aerobically at 37° C. for 18 h. The MIC was defined as the lowest concentration of antibacterial agent that inhibited development of visible growth in the microdilution wells.

Assay [2] has as its system H. influenzae ATCC 49247. The protocol:
as §1

Assay [3] has as its system E. coli ATCC 25933. Here is the method:
as §1

Assay [4] concerns S. aureus ATCC 29213. Here is the method:
as §1

Assay [5] deals with M. catarrhalis ATCC 23246. Here is the method: as §1
Assay [6] concerns E. hirae ATCC 9790. Here is the method:
as §1

The subject of assay [7] is E. coli 1850E. The protocol: as §1
In assay [8] the test system is S. aureus ATCC 13709. Here is the method:
as §1

The test system of assay [9] is S. aureus RN450. The protocol: as §1
For assay [10], the system named is S. aureus RN4250. The protocol: as §1
The subject of assay [11] is S. pneumoniae 157E. The protocol:
as §1

For `C[C@H]1c2ccc(NCC(=O)N(C)C)c(O)c2C(=O)C2=C(O)[C@]3(O)C(=O)C(C(N)=O)=C(O)[C@@H](N(C)C)[C@@H]3[C@@H](O)[C@@H]21` [Example 4, [4S-(4a,5,5a,6,12a)]-4-(Dimethylamino)-9-[(N,N-dimethylaminocarbonyl)methyl]amino-1,4,4a,5,5a,6,11,12a-octahydro-3,5,10,12,12a-pentahydroxy-6-methyl-1,11-dioxo-2-naphtacenecarboxamide], the MIC in assay [1] was 0.06 µg/mL (≈ 0.11 µM); in [2], 2 µg/mL (≈ 3.67 µM); in [3] it was 2 µg/mL (≈ 3.67 µM); in [4], 0.5 µg/mL (≈ 0.918 µM).

Take `CCOC(=O)C(C)Nc1ccc2c(c1O)C(=O)C1=C(O)[C@]3(O)C(=O)C(C(N)=O)=C(O)[C@@H](N(C)C)[C@@H]3[C@@H](O)[C@@H]1[C@H]2C` (stereo partly drawn) [Example 2, [4S-(4a,5,5a,6,12a)]-4-(Dimethylamino)-9-[1-(ethoxycarbonyl)ethyl]amino-1,4,4a,5,5a,6,11,12a-octahydro-3,5,10,12,12a-pentahydroxy-6-methyl-1,11-dioxo-2-naphtacenecarboxamide]: the MIC in [5] is 1 µg/mL (≈ 1.79 µM); in [6] it was 0.25 µg/mL (≈ 0.447 µM); in [7], 64 µg/mL (≈ 114 µM); in assay [8], 0.5 µg/mL (≈ 0.894 µM); in assay [1], 0.5 µg/mL (≈ 0.894 µM); in [9] it was 0.25 µg/mL (≈ 0.447 µM). For the same compound, the MIC in [2] turned out to be 32 µg/mL (≈ 57.2 µM); in assay [10], 2 µg/mL (≈ 3.57 µM); in assay [11], 1 µg/mL (≈ 1.79 µM).

With `CCOC(=O)CNc1cc(N(C)C)c2c(c1O)C(=O)C1=C(O)[C@]3(O)C(=O)C(C(N)=O)=C(O)[C@@H](N(C)C)[C@@H]3C[C@@H]1C2` [Example 1, [4S-(4a,5a,12a)]-4,7-Bis(dimethylamino)-9-[(ethoxycarbonyl)methyl]amino-1,4,4a,5,5a,6,11,12a-octahydro-3,10,12,12a-tetrahydroxy-1,11-dioxo-2-naphtacenecarboxamide], the MIC worked out at 4 µg/mL (≈ 7.16 µM) in assay [5]; 8 µg/mL (≈ 14.3 µM) in assay [6]; 32 µg/mL (≈ 57.3 µM) in assay [7]; 32 µg/mL (≈ 57.3 µM) in assay [1]; 16 µg/mL (≈ 28.6 µM) in [9]; 32 µg/mL (≈ 57.3 µM) in assay [2]. The MIC in assay [10] and in [4] was 16 µg/mL (≈ 28.6 µM) throughout.

Take `CCOC(=O)CNc1ccc2c(c1O)C(=O)C1=C(O)[C@]3(O)C(=O)C(C(N)=O)=C(O)[C@@H](N(C)C)[C@@H]3[C@@H](O)[C@@H]1[C@H]2C` [Example 3, [4S-(4a,5,5a,6,12a)]-4-(Dimethylamino)-9-[(ethoxycarbonyl)methyl]amino-1,4,4a,5,5a,6,11,12a-octahydro-3,5,10,12,12a-pentahydroxy-6-methyl-1,11-dioxo-2-naphtacenecarboxamide]: the MIC in assay [5] turned out to be 2 µg/mL (≈ 3.67 µM); in [6], 1 µg/mL (≈ 1.83 µM); in assay [7] it was 32 µg/mL (≈ 58.7 µM); in assay [8], 1 µg/mL (≈ 1.83 µM); in assay [1] it was 0.5 µg/mL (≈ 0.917 µM); in [9] it was 0.5 µg/mL (≈ 0.917 µM). In addition, the MIC in [2] stood at 8 µg/mL (≈ 14.7 µM); in assay [10], 2 µg/mL (≈ 3.67 µM).
